≈ marks a conversion by molar mass, not a printed value. Read-outs that look alike come from different tables or passages of the source. *1 amine or outer side, *2 acyl side, *3 side chain or, on linkers, in order; H or OH if unused. Where a SMILES comes first, the peptide text is derived from it. Side-chain parts run from the residue outwards. [ ]: non-standard residue; d: D form. The star is where a group is joined. X2 = CCCCCCCCCCCCCCCCCC(=O)N[C@@H](CCC(=O)N[C@@H](CCC(=O)N[C@@H](CCC(=O)NCCCC[C@H](NC(=O)COCC(=O)NCCCOCCOCCOCCCNC(=O)COCC(=O)NCCCOCCOCCOCCCNC(=O)COCC(=O)NCCCOCCOCCOCCCN*)C(N)=O)C(=O)O)C(=O)O)C(=O)O; X7 = CCCCCCCCCCCCCCCCCC(=O)N[C@@H](CCC(=O)N[C@@H](CCC(=O)N[C@@H](CCC(=O)NCCCOCCOCCOCCCNC(=O)COCC(=O)NCCCOCCOCCOCCCNC(=O)COCC(=O)*)C(=O)O)C(=O)O)C(=O)O; γGlu = O=C(O)[C@H](CCC(=O)[*:2])N[*:1]; Stearoyl = CCCCCCCCCCCCCCCCCC(=O)*; Palmitoyl = CCCCCCCCCCCCCCCC(=O)*; Nle = CCCC[C@H](N)C(=O)O; AEEA = NCCOCCOCC(=O)O; Aib = CC(C)(N)C(=O)O
What was measured:
RXFP1 = biological target: T1, RXFP1 (Homo sapiens, UniProt Q9HBX9); assay: OVCAR5 cAMP assay (HTRF), RXFP1 agonist activity; type: cell-based; conditions: for Emax: OVCAR-5, maximal cAMP relative to H2-relaxin maximum (100%), read-out: EMax, OVCAR 5 cells (cAMP)
T1 construct: OVCAR5 cells expressing endogenous RXFP1; endogenous in cells; host or cells: OVCAR5 cells
T1 sequence (Q9HBX9 1-757): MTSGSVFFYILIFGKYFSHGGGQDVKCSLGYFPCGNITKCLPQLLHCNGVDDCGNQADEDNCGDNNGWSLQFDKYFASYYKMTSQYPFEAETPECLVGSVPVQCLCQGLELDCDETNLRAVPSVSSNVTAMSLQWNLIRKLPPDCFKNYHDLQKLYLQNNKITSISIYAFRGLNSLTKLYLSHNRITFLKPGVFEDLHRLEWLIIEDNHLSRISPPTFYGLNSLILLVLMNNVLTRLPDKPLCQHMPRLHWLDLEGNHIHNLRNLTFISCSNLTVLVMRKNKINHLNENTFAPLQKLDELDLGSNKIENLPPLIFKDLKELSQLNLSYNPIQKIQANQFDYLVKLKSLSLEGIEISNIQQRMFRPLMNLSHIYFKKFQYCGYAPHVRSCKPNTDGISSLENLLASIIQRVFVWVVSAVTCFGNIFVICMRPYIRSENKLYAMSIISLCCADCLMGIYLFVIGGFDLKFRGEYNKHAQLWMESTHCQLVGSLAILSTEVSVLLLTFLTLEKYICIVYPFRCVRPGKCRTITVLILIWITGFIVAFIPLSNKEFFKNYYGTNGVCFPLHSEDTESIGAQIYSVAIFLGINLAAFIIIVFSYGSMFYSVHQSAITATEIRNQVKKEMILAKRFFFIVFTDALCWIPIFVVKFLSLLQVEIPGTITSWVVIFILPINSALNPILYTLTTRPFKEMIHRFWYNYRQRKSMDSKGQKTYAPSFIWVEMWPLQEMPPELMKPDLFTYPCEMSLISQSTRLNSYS
How it was run: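 OVCAR5 cells (endogenous RXFP1) pretreated 40 min at 37° C with 1 mM IBMX, then exposed to peptides in serum-free medium for 30 min at 37° C. Lysate cAMP read by HTRF; EC50 from variable-slope sigmoidal fit; Emax as % of H2-relaxin maximal cAMP in same run.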

[1] = Solubility testing of peptides in buffer; type: physicochemical
Experimental: Prior to the testing of solubility of a peptide batch, its purity (HPLC-UV) was determined.
Acetate Buffer 50 mM pH4.5: 0.75 g […], 3H2O (Sigma 57545)+0.35 ml CH3CO2H 100% solution dissolved in Millipore water, adjusted to pH with diluted (1:1) CH3CO2H and diluted to 250 ml with Millipore water.
In a 4 ml Ependorph vial, an accurately weighed sample of compound was diluted in study media to obtain target concentration of 2, 6 or 10 mg/ml of pure compound. The sample vials were shacked (rock 'roll shaker) for ˜19 h. 3004, Aliquots ( ) were filtered through a Millipore “Solvinert” plate (0.45 μm—PTFE hydrophilic).
pH was measured with a micro electrode
Waters Acquity UPLC System with DAD detector
Column: Waters Peptide Column CSH C18 (130 Å; 1.7 μm; 50*2.1 mm)
Column temperature: 60° C.
Full loop (about 5 μL)—overfill factor 5
Weak et Strong wash: H2O/ACN (75/25; V/V); Seal wash: H2O/IsOH (95/5; V/V). Mobile phase:
Solvent A: 0.05% TFA in H2O; Solvent B: 0.035% TFA in CH3CN
Gradient: from 0 to 12 min B=2% to 60%, from 12 to 14 min B=60% to 100%. Column washing 100% B 1 min, column equilibration 2% B 2.5 min.
UV detector: wavelength: 220 nm.

[2] = Pharmacokinetic (PK) determination after i.v. or s.c. administration to rats; type: in vivo, Sprague Dawley rats; conditions: Sprague Dawley, Rat PK; for C0 / half-life: iv, 1 mg/kg i.v.; for C0: extrapolated plasma concentration at t=0, read-out: C0; for half-life / Cmax / Tmax / bioavailability: plasma; for half-life: read-out: T½ (converted); for Cmax / Tmax: sc, 3 mg/kg s.c.; for bioavailability: subcutaneous, 3 mg/kg s.c. vs 1 mg/kg i.v., dose-corrected AUC ratio
How it was run: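 Sprague Dawley rats received peptide in PBS at 1 mg/kg i.v. or 3 mg/kg s.c., dose corrected for salts, solvent and purity. Plasma analysed by LC/MS after protein precipitation; non-compartmental PK, BLQ values set to zero, F% as dose-corrected s.c./i.v. AUC ratio.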

[3] = Stability testing of peptides in human plasma or blood; type: in vitro ADME; conditions: human plasma or blood, T = 0 (reference), 5 μM, 37° C.
Experimental: (§1) Prior to the testing of stability in plasma (or blood) of a peptide batch, its purity (HPLC-UV) was determined.
(§2) Rat and Human plasma: anti-coagulant sodium or lithium heparin.
(§3) Rat and Human blood: anti-coagulant sodium or lithium heparin. • Stock solution: • 100 μM solution of study compound in 50 mM Phosphate buffer pH 7.4. • 950 μL plasma (or blood) was pre-incubated for 5 min at 37° C. 50 μL of compound stock solution was added. Final compound concentration=5 μM. Vortex and transfer 1504, plasma (or blood) into an Eppendorf for each time point. The time points […] were carried out in duplicate for each species.
(§4) After incubation 150 μL, plasma (or blood) was extracted with 600 μL, Acetonitrile containing with 1% TFA. Then, vortexed and centrifuged 10 min at 14600 rpm. 200 μL supernatant was dried under N2. The sample was reconstituted in 200 μL of H2O/CH3CN 98/2+0.1% FA+50 ng/ml Labetalol and analyzed using the analytical system used in solubility and stability studies.
(§5) For determination of the amount of the remaining peptide, the peak areas of the target compound at t0 and each time point […] were compared, resulting in “% remaining peptide”, following the equation: % remaining peptide=[(peak area peptide time)×100]/peak area peptide t0. The stability is expressed as “% remaining peptide”.

[4] = Stability testing of peptides in rat plasma or blood; type: in vitro ADME; conditions: 37° C.
Experimental: as §1, §2, §3, §4, §5

[5] = acetate buffer, pH 4.5, read-out: Solubility Acetate buffer pH 4.5
[6] = phosphate buffer, pH 7.4, read-out: Solubility phosphate buffer pH 7.4

| Structure (SMILES) | EC50 (RXFP1; OVCAR5 cells, cAMP HTRF, read-out: EC50 (nM), OVCAR 5 cells (cAMP)) | Emax (RXFP1) | solubility [1, 5] | solubility [1, 6] | C0 [2] | half-life [2] | Cmax [2] | Tmax [2] | bioavailability [2] | Human Plasma stability % remaining T = 0 [3] | Rat plasma stability % remaining T = 0 ([4]; rat plasma or blood, T = 0 (reference), 5 μM) | remaining at 1 h, 5 µM ([4]; whole blood, rat blood, 1 h, read-out: Rat stability in blood % remaining 1 h) | remaining at 4 h, 5 µM ([4]; whole blood, rat blood, 4 h, read-out: Rat stability in blood % remaining 4 h) |
| --- | --- | --- | --- | --- | --- | --- | --- | --- | --- | --- | --- | --- | --- |
| CCCCCCCCCCCCCCCC(=O)N[C@@H](CCC(=O)NCCCC[C@H](NC(=O)CC[C@H](NC(=O)CC[C@H](NC(=O)COCCOCCNC(=O)COCCOCCNC(=O)COCCOCCNC(=O)[C@H](CCCCN)NC(=O)[C@H](CCCCN)NC(=O)[C@H](CCCCN)NC(=O)[C@H](CCCNC(=N)N)NC(=O)C(C)(C)NC(=O)[C@H](CO)NC(=O)[C@H](Cc1c[nH]c2ccccc12)NC(=O)[C@@H](NC(=O)[C@H](CO)NC(=O)[C@H](CCCC)NC(=O)CNC(=O)[C@H](CCC(=O)O)NC(=O)C(C)(C)NC(=O)C(C)(C)NC(=O)[C@@H](NC(=O)[C@H](CCC(N)=O)NC(=O)[C@H](C)NC(=O)[C@H](CCCNC(=N)N)NC(=O)[C@@H](NC(=O)[C@H](CCCCN)NC(=O)[C@H](CCC(=O)O)NC(=O)[C@H](CCCNC(=N)N)NC(=O)CNC(=O)[C@H](CCC(=O)O)NC(=O)[C@H](CC(C)C)NC(C)=O)C(C)C)[C@@H](C)CC)[C@@H](C)O)C(=O)O)C(=O)O)C(N)=O)C(=O)O [compound 109] (Ac-LEGREKVRAQI[Aib][Aib]EG[Nle]STWS[Aib]RKKK[AEEA][AEEA][AEEA][γGlu][γGlu]K([γGlu-Palmitoyl])-NH2) | 0.15 nM | 98% | 5.9 mg/mL (≈ 1440 µM) | 5.9 mg/mL (≈ 1440 µM) | – | – | – | – | – | – | – | – | – |
| CCCCCCCCCCCCCCCCCC(=O)N[C@@H](CCC(=O)N[C@@H](CCC(=O)N[C@@H](CCC(=O)NCCCC[C@H](NC(=O)COCC(=O)NCCCOCCOCCOCCCNC(=O)COCC(=O)NCCCOCCOCCOCCCNC(=O)COCC(=O)NCCCOCCOCCOCCCNC(=O)[C@H](CCCCNC(C)=O)NC(=O)[C@H](CCCCN)NC(=O)[C@H](CCCNC(=N)N)NC(=O)C(C)(C)NC(=O)[C@H](CO)NC(=O)[C@H](Cc1c[nH]c2ccccc12)NC(=O)[C@@H](NC(=O)[C@H](CO)NC(=O)[C@H](CCCC)NC(=O)CNC(=O)[C@H](CCC(=O)O)NC(=O)C(C)(C)NC(=O)C(C)(C)NC(=O)[C@@H](NC(=O)[C@H](CCCCNC(C)=O)NC(=O)[C@H](C)NC(=O)[C@H](CCCNC(=N)N)NC(=O)[C@@H](NC(=O)[C@H](CCCCN)NC(=O)[C@H](CCC(=O)O)NC(=O)[C@H](CCCNC(=N)N)NC(=O)CNC(=O)[C@H](CCC(=O)O)NC(=O)[C@H](CC(C)C)NC(C)=O)C(C)C)[C@@H](C)CC)[C@@H](C)O)C(N)=O)C(=O)O)C(=O)O)C(=O)O [compound 20] (Ac-LEGREKVRAK(Ac)I[Aib][Aib]EG[Nle]STWS[Aib]RKK(Ac)-X2) | – | 88% | 5.6 mg/mL (≈ 1220 µM) | 5.6 mg/mL (≈ 1220 µM) | 4 µM | 3.96 h | 3 µM | 8 h | 73% | – | – | – | – |
| CCCCCCCCCCCCCCCCCC(=O)N[C@@H](CCC(=O)N[C@@H](CCC(=O)N[C@@H](CCC(=O)NCCCOCCOCCOCCCNC(=O)COCC(=O)NCCCOCCOCCOCCCNC(=O)COCC(=O)NCCCC[C@H](NC(=O)[C@H](CCCCNC(C)=O)NC(=O)[C@H](CCCCN)NC(=O)[C@H](CCCNC(=N)N)NC(=O)C(C)(C)NC(=O)[C@H](CO)NC(=O)[C@H](Cc1c[nH]c2ccccc12)NC(=O)[C@@H](NC(=O)[C@H](CO)NC(=O)[C@H](CCCC)NC(=O)CNC(=O)[C@H](CCC(=O)O)NC(=O)C(C)(C)NC(=O)C(C)(C)NC(=O)[C@@H](NC(=O)[C@H](CCCCNC(C)=O)NC(=O)[C@H](C)NC(=O)[C@H](CCCNC(=N)N)NC(=O)[C@@H](NC(=O)[C@H](CCCCN)NC(=O)[C@H](CCC(=O)O)NC(=O)[C@H](CCCNC(=N)N)NC(=O)CNC(=O)[C@H](CCC(=O)O)NC(=O)[C@H](CC(C)C)NC(C)=O)C(C)C)[C@@H](C)CC)[C@@H](C)O)C(N)=O)C(=O)O)C(=O)O)C(=O)O [compound 95] (Ac-LEGREKVRAK(Ac)I[Aib][Aib]EG[Nle]STWS[Aib]RKK(Ac)K(X7)-NH2) | – | 87% | 5.6 mg/mL (≈ 1310 µM) | 5.6 mg/mL (≈ 1310 µM) | – | – | – | – | – | – | – | – | – |
| CCCCCCCCCCCCCCCCCC(=O)N[C@@H](CCC(=O)N[C@@H](CCC(=O)N[C@@H](CCC(=O)NCCCC[C@H](NC(=O)[C@H](CCCCN)NC(=O)[C@H](CCCNC(=N)N)NC(=O)C(C)(C)NC(=O)[C@H](CO)NC(=O)[C@H](Cc1c[nH]c2ccccc12)NC(=O)[C@@H](NC(=O)[C@H](CO)NC(=O)[C@H](CCCC)NC(=O)CNC(=O)[C@H](CCC(=O)O)NC(=O)C(C)(C)NC(=O)C(C)(C)NC(=O)[C@@H](NC(=O)[C@H](CCC(N)=O)NC(=O)[C@H](C)NC(=O)[C@H](CCCNC(=N)N)NC(=O)[C@@H](NC(=O)[C@H](CCCCN)NC(=O)[C@H](CCC(=O)O)NC(=O)[C@H](CCCNC(=N)N)NC(=O)CNC(=O)[C@H](CCC(=O)O)NC(=O)[C@H](CC(C)C)NC(C)=O)C(C)C)[C@@H](C)CC)[C@@H](C)O)C(N)=O)C(=O)O)C(=O)O)C(=O)O [compound 9] (Ac-LEGREKVRAQI[Aib][Aib]EG[Nle]STWS[Aib]RKK([γGlu-γGlu-γGlu-Stearoyl])-NH2) | – | 95% | – | – | 4.99 µM | 3 h | 2.32 µM | 6 h | 42% | 100% | 100% | 84% | 92% |
